Read-outs that look alike come from different tables or passages of the source.
Legend:
supercoiled plasmid DNA = experiment: In vitro DNA cleavage assay; type: biochemical
Description: Compound 3 was tested for its ability to cleave plasmid DNA in vitro in the presence of copper and the reducing agent ascorbic acid. Experiments were performed in a total of 20 μl, containing 10 mM NaH2PO4/Na2HPO4 buffer (pH 6.7), 1 μg of supercoiled plasmid DNA, 100 μM ascorbic acid, 25 μM drug compound (or vehicle), and 10 μM of CuSO4.5H20. The reaction mixture was incubated at 37° C. for 30 minutes, and 1 μl of 0.1 M EDTA was added to terminate the reaction. DNA loading buffer was added, and reactions were run at 80V for 80 minutes on a 1% agarose gel containing ethidium bromide.
To determine whether ions other than copper could suffice, DNA cleavage reactions were also carried out in the presence of zinc or iron. Reactions were performed as above, in the presence of 25 μM of CuSO4.5H20, ZnCl2, or FeCl2.4H20. […] Note that copper alone in the presence of ascorbic acid can shift the ratio of supercoiled DNA to open circular DNA.
To determine the ratios of compound to copper at which compound 3 was effective, reactions were performed as in FIG. 22A. The ratios of compound 3 to copper of 3:1, 2.5:1, 2:1, 1.5:1, and 1:1, as shown in FIG. 23 were achieved by maintaining the concentration of Cu constant at 10 μM, and varying the concentration of compound 3. The ratios of compound 3 to Cu of 1:1.5, 1:2, 1:2.5, and 1:3, were achieved by maintaining the concentration of compound 3 constant at 10 μM, and varying the concentration of copper.
Other compounds of Formula I, compounds 5, 7, 9 and 13 were also tested for their ability to cleave DNA at a ratio of 2.5:1 to copper (FIG. 23). Ratios of compound 3:copper as indicated, plus concentrations of copper in the absence of compound 3 were used in the DNA cleavage assay as described above.

[1] = test system: human colon carcinoma HT-29 cells; experiment: XTT cell proliferation assay, HT-29; type: cell-based; settings: HT-29, XTT
Description: The ability of compounds of Formula I to inhibit the proliferation of human colon carcinoma HT-29 cells was tested as follows. HT-29 colon carcinoma cells used in this example and subsequent examples were maintained as a monolayer in a growth medium; McCoy's 5A modified medium (Sigma, St. Louis, Mo.), supplemented with 2 mM L-glutamine (Gibco, Grand Island, N.Y.), 10% fetal bovine serum (FBS) (Multicell, WISENT Inc. St-Bruno, QC), antibiotic-antimycotic (Multicell), at 37° C. in a 5% CO2-humidified incubator. Cells were transferred onto 150 mm tissue culture plates and grown until sub-confluency (70-80%) prior to their use. The in vitro antiproliferative activity of compounds was evaluated by incubating the cells with varying concentrations of the compounds as shown in Table 1 for 6-7 days. The efficacy of these compounds in this cell proliferation assay was measured based in the ability of live cells to reduce the tetrazolium salt XTT to orange colored compounds of formazan (XTT cell proliferation kit II, Roche Applied Science, Montreal, QC).
The ability of compounds of Formula I to inhibit the proliferation of human colon carcinoma HT-29 cells was tested as described above in Example 13.
Cell growth inhibition IC50 (μM) by compounds of Formula I was tested on various cancer cell types by XTT cell proliferation assay. The growth inhibitory effects of the compounds of Formula I as shown below for the melanoma cell line SK-MEL-2 were reproducible by Lorus Therapeutics Inc.

[2] = Homo sapiens, as Example 13, Table 7, read-out: IC50
[3] = Homo sapiens, 6-7 days, Table 3, read-out: IC50

SMILES	IC50 ([1]; as Example 13, Table 7)	further results
c1cnc2c(c1)ccc1cccnc12 [1,10-phenanthroline (OP), 1,10-phenanthroline, reference compound]		cleavage of plasmid DNA (supercoiled plasmid DNA; 25 μM compound, 10 μM CuSO4, 100 μM ascorbic acid, 37° C., 30 minutes): able to cleave plasmid DNA; cleavage of plasmid DNA (supercoiled plasmid DNA; absence of copper or reducing agent): Neither compound 3 nor OP was able to cleave DNA
c1ccc2c(-c3nc4c5cccnc5c5ncccc5c4[nH]3)c[nH]c2c1 [Compound 1]	2 µg/mL	
Fc1ccc2[nH]cc(-c3nc4c5cccnc5c5ncccc5c4[nH]3)c2c1 [Compound 4]		IC50 [1, 2]: 3.5 µg/mL
COc1ccc2[nH]c(C)c(-c3nc4c5cccnc5c5ncccc5c4[nH]3)c2c1 [Compound 6]		IC50 [1, 3]: 1400 nM; IC50 [1, 2]: 1.4 µg/mL
Cc1[nH]c2ccc(O)cc2c1-c1nc2c3cccnc3c3ncccc3c2[nH]1 [Compound 8]		IC50 [1, 2]: > 25 µg/mL
Fc1ccc(-c2[nH]c3ccccc3c2-c2nc3c4cccnc4c4ncccc4c3[nH]2)cc1 [Compound 10]		IC50 [1, 3]: 180 nM; IC50 [1, 2]: 0.18 µg/mL
Cn1c(-c2ccccc2)c(-c2nc3c4cccnc4c4ncccc4c3[nH]2)c2ccccc21 [Compound 18]	0.37 µg/mL	
Cc1[nH]c2ccc([N+](=O)[O-])cc2c1-c1nc2c3cccnc3c3ncccc3c2[nH]1 [Compound 38]	3.5 µg/mL	
O=C(Cn1cc(-c2nc3c4cccnc4c4ncccc4c3[nH]2)c2ccccc21)N1CCOCC1 [Compound 44]	>5-25<, μg/ml	
O=C(Cn1cc(-c2nc3c4cccnc4c4ncccc4c3[nH]2)c2ccccc21)N1CCCC1 [Compound 46]	>5-25< μg/ml	
O=C(Cn1cc(-c2nc3c4cccnc4c4ncccc4c3[nH]2)c2ccccc21)N1CCCCC1 [Compound 47]	5 µg/mL	
CC1CCCC(C)N1C(=O)Cn1cc(-c2nc3c4cccnc4c4ncccc4c3[nH]2)c2ccccc21 (centres unmarked) [Compound 50]	2.3 µg/mL	
CC1CCN(C(=O)Cn2cc(-c3nc4c5cccnc5c5ncccc5c4[nH]3)c3ccccc32)CC1 [Compound 51]	5 µg/mL	
CC(C)n1cc(-c2nc3c4cccnc4c4ncccc4c3[nH]2)c2ccccc21 [Compound 52]	0.19 µg/mL	
c1ccc2c(c1)c(-c1nc3c4cccnc4c4ncccc4c3[nH]1)cn2C1CCCC1 [Compound 53]	0.19 µg/mL	
Cc1c(-c2nc3c4cccnc4c4ncccc4c3[nH]2)c2ccccc2n1CC(=O)N1CCCCC1 [Compound 57]	5 µg/mL	

SMILES	IC50 ([1]; as Example 13, Table 7)	further results
Cn1c(N2CCOCC2)c(-c2nc3c4cccnc4c4ncccc4c3[nH]2)c2ccccc21 [Compound 59]	0.6 µg/mL	
CC(C)c1ccc2[nH]c(C(C)(C)C)c(-c3nc4c5cccnc5c5ncccc5c4[nH]3)c2c1 [Compound 61]	0.4 µg/mL	
Cc1cccc2c(-c3nc4c5cccnc5c5ncccc5c4[nH]3)c(C(C)(C)C)[nH]c12 [Compound 62]	<0.1 µg/mL	
Cc1ccc(C)c2c(-c3nc4c5cccnc5c5ncccc5c4[nH]3)c(C34CC5CC(CC(C5)C3)C4)[nH]c12 [Compound 70]	0.35 µg/mL	
Fc1ccc2[nH]c(C34CC5CC(CC(C5)C3)C4)c(-c3nc4c5cccnc5c5ncccc5c4[nH]3)c2c1 [Compound 72]	0.18 µg/mL	
CN(C)S(=O)(=O)c1ccc2[nH]c(Cl)c(-c3nc4c5cccnc5c5ncccc5c4[nH]3)c2c1 [Compound 76]	>25 µg/mL	
Cc1c(-c2nc3c4cccnc4c4ncccc4c3[nH]2)c2cc(F)ccc2n1Cc1ccccc1 [Compound 77]	0.24 µg/mL	
c1ccc2c(-c3nc4c5cccnc5c5ncccc5c4[nH]3)c(C34CC5CC(CC(C5)C3)C4)[nH]c2c1 [Compound 78]	0.38 µg/mL	
CC(C)c1[nH]c2ccccc2c1-c1nc2c3cccnc3c3ncccc3c2[nH]1 [Compound 79]	0.65 µg/mL	
c1ccc2c(-c3nc4c5cccnc5c5ncccc5c4[nH]3)c(C3CCCCC3)[nH]c2c1 [Compound 80]	0.42 µg/mL	
c1ccc2c(-c3nc4c5cccnc5c5ncccc5c4[nH]3)c(C3CCCC3)[nH]c2c1 [Compound 81]	0.4 µg/mL	
CC(C)c1[nH]c2ccc(F)cc2c1-c1nc2c3cccnc3c3ncccc3c2[nH]1 [Compound 82]	0.61 µg/mL	
Cc1ccc(F)c2c(-c3nc4c5cccnc5c5ncccc5c4[nH]3)c(C(C)(C)C)[nH]c12 [Compound 83]	0.1 µg/mL	
Cc1cc(Cl)cc2c(-c3nc4c5cccnc5c5ncccc5c4[nH]3)c(C(C)(C)C)[nH]c12 [Compound 84]	0.39 µg/mL	
CCc1ccc2[nH]c(C(C)(C)C)c(-c3nc4c5cccnc5c5ncccc5c4[nH]3)c2c1 [Compound 86]	0.47 µg/mL	
CC(C)(C)c1[nH]c2c(F)cccc2c1-c1nc2c3cccnc3c3ncccc3c2[nH]1 [Compound 88]	0.38 µg/mL	

Now from value to molecule, other results behind:

IC50 ([1]; as Example 13, Table 7)	SMILES	further results
0.45 µg/mL	CC(C)(C)c1[nH]c2ccccc2c1-c1nc2c3cccnc3c3ncccc3c2[nH]1 [Compound 39]	
0.31 µg/mL	Clc1ccc(-c2[nH]c3ccccc3c2-c2nc3c4cccnc4c4ncccc4c3[nH]2)cc1 [Compound 42]	
>5-25< μg/ml	Cc1c(-c2nc3c4cccnc4c4ncccc4c3[nH]2)c2ccccc2n1CC(=O)N1CCCC1 [Compound 43]	
7 µg/mL	O=C(Cn1cc(-c2nc3c4cccnc4c4ncccc4c3[nH]2)c2ccccc21)N1CCCCCC1 [Compound 45]	
>5-25< μg/ml	O=C(Cn1cc(-c2nc3c4cccnc4c4ncccc4c3[nH]2)c2cc(Br)ccc21)N1CCCC1 [Compound 49]	
0.28 µg/mL	COc1ccc2c(c1)c(-c1nc3c4cccnc4c4ncccc4c3[nH]1)cn2C(C)C [Compound 54]	
2.4 µg/mL	Cc1c(-c2nc3c4cccnc4c4ncccc4c3[nH]2)c2ccccc2n1CC(=O)N1CCC(C)CC1 [Compound 55]	
5 µg/mL	Cc1c(-c2nc3c4cccnc4c4ncccc4c3[nH]2)c2ccccc2n1CC(=O)N1CCCCCC1 [Compound 56]	
>	CN1CCN(C(=O)Cn2cc(-c3nc4c5cccnc5c5ncccc5c4[nH]3)c3ccccc32)CC1 [Compound 58]	
0.35 µg/mL	CC(C)(C)c1[nH]c2ccc(F)cc2c1-c1nc2c3cccnc3c3ncccc3c2[nH]1 [Compound 65]	
0.4 µg/mL	CC(C)(C)c1[nH]c2c(F)cc(F)cc2c1-c1nc2c3cccnc3c3ncccc3c2[nH]1 [Compound 66]	
0.34 µg/mL	CC(C)(C)c1[nH]c2ccc(-c3ccccc3)cc2c1-c1nc2c3cccnc3c3ncccc3c2[nH]1 [Compound 68]	
3 µg/mL	CC(C)(C)c1[nH]c2ccc(C#N)cc2c1-c1nc2c3cccnc3c3ncccc3c2[nH]1 [Compound 71]	
0.22 µg/mL	CC(C)(C)c1ccc2[nH]c(C3CCCC3)c(-c3nc4c5cccnc5c5ncccc5c4[nH]3)c2c1 [Compound 73]	
0.18 µg/mL	Cc1ccccc1-c1[nH]c2ccc(C(C)(C)C)cc2c1-c1nc2c3cccnc3c3ncccc3c2[nH]1 [Compound 74]	
>25 µg/mL	O=S(=O)(c1ccc2[nH]c(Cl)c(-c3nc4c5cccnc5c5ncccc5c4[nH]3)c2c1)N1CCOCC1 [Compound 75]	
0.24 µg/mL	Cc1ccc(Cl)c2c(-c3nc4c5cccnc5c5ncccc5c4[nH]3)c(C(C)(C)C)[nH]c12 [Compound 85]	
0.42 µg/mL	CC(C)(C)c1[nH]c2ccc(Br)cc2c1-c1nc2c3cccnc3c3ncccc3c2[nH]1 [Compound 87]	

Source: patent publication US8148392B2, “2-indolyl imidazo [4,5-d] phenanthroline derivatives and their use in the treatment of cancer” (Lorus Therapeutics Inc., priority 2005, dated 2012)
